Test results from patent US20250145585A1, “HETEROCYCLIC INHIBITORS OF IGF-1R FOR TREATMENT OF DISEASE” (HORIZON THERAPEUTICS IRELAND DAC, priority 2023, published 2025).

Columns and labels:
[1] = molecular target: T1, IGF-1R (Homo sapiens, UniProt P08069); assay: Example B-2: IGF-1R Assay (PathHunter cell lines, EC80 agonist challenge, chemiluminescent detection); assay type: cell-based; details: PathHunter cells, compound 60 minutes at 37° C., EC80 agonist 3 hours; read-out: IC50, Biological Activity against IGF-1R (Table B2)
T1 construct: expressed in transfected cells
In short: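 PathHunter cells were pre-incubated with compound for 60 min at 37° C (1% vehicle), then challenged with EC80 agonist for 3 h at room temperature. Chemiluminescent detection after 1 h gave % inhibition relative to EC80 and vehicle controls, from which IC50 was derived.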

[2] = molecular target: T1, IGF-1R; assay: Example B-1: IGF-1R Assay (PC3 cells stimulated with IGF1, AlphaLISA on cell lysates); assay type: cell-based; details: compound two hours, IGF1 200 ng/mL for 30 min, read-out: IC50, Biological Activity against IGF-1R (Table B1)
In short: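 PC3 cells serum-starved 2 h, treated 2 h with 3-fold serially diluted compound, then stimulated 30 min with IGF1 (200 ng/mL final). Lysates analysed by AlphaLISA; % inhibition calculated relative to vehicle and EC80 controls, IC50 derived.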

T1 sequence (P08069 31-1367): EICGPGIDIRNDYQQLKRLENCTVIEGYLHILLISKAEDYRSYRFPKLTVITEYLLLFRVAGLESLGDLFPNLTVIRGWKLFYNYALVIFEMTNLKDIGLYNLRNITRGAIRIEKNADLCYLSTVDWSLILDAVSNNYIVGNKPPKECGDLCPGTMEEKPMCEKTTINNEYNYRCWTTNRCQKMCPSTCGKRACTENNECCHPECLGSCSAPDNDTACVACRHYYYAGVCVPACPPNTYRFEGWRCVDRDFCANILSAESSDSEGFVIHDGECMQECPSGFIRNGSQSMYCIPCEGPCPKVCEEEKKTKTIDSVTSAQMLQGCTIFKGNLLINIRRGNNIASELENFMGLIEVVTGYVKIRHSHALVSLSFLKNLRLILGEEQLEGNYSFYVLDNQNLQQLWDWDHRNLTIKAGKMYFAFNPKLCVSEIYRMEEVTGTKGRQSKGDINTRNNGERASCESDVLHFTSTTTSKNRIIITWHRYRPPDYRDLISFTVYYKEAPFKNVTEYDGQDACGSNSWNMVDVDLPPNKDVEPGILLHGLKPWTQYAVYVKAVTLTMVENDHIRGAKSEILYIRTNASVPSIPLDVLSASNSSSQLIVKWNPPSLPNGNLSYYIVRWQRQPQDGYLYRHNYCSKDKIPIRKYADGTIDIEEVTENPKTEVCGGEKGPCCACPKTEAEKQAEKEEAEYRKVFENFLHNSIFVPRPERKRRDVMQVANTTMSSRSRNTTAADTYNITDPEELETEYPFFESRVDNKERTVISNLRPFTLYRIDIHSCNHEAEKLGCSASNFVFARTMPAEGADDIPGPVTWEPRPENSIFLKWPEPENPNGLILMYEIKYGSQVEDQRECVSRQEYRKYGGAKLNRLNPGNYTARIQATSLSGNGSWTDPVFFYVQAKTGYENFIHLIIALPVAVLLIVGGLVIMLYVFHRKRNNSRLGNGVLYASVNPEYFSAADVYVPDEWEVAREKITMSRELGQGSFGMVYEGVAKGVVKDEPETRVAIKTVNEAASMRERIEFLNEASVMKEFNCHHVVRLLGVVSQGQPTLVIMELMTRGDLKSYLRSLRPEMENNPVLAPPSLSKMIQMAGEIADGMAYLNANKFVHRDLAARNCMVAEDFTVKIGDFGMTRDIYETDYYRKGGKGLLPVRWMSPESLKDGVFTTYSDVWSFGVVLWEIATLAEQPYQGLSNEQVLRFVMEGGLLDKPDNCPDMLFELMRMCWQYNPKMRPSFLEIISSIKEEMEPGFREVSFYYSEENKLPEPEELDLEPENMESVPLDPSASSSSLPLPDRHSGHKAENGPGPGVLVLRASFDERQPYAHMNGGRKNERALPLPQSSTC

Structure (SMILES) | IC50 [1] [nM] | IC50 [2] [nM]
CC1(C)Cc2c(CN3C(=O)N(c4ccc(SC(F)(F)F)cc4)C(=O)C3(C)C)ccnc2N1 [Compound 21, 1-((2,2-dimethyl-2,3-dihydro-1H-pyrrolo[2,3-b]pyridin-4-yl)methyl)-5,5-dimethyl-3-(4-((trifluoromethyl)thio)phenyl)imidazolidine-2,4-dione] | ≤ 500 | ≤ 500
CC1(C)COCCC1Nc1cc(CN2C(=O)N(c3ccc(C4(C(F)(F)F)CC4)cc3)C(=O)C2(C)C)ccn1 (centres unmarked) [Compound 132, 1-((2-((3,3-dimethyltetrahydro-2H-pyran-4-yl)amino)pyridin-4-yl)methyl)-5,5-dimethyl-3-(4-(1-(trifluoromethyl)cyclopropyl)phenyl) imidazolidine-2,4-dione] | 500 to 2000 | 2000 to 10000
CC(C)Nc1cc(CN2C(=O)N(c3ccc(C4(C#N)CCC4)cc3)C(=O)C2(C)C)ccn1 [Compound 107, 1-(4-(3-((2-(isopropylamino)pyridin-4-yl)methyl)-4,4-dimethyl-2,5-dioxoimidazolidin-1-yl)phenyl)cyclobutane-1-carbonitrile] | ≤ 500 | ≤ 500
CC(C)Nc1cc(CN2C(=O)N(c3ccc(C(C)(C)C)nc3)C(=O)C2(C)C)ccn1 [Compound 267, 3-(6-(tert-butyl)pyridin-3-yl)-1-((2-(isopropylamino)pyridin-4-yl)methyl)-5,5-dimethylimidazolidine-2,4-dione] | ≤ 500 | ≤ 500
CC(C)Nc1cc(CN2C(=O)N(c3ccc(C4(C#N)CCCC4)cc3)C(=O)C2(C)C)ccn1 [Compound 131, 1-(4-(3-((2-(isopropylamino)pyridin-4-yl)methyl)-4,4-dimethyl-2,5-dioxoimidazolidin-1-yl)phenyl)cyclopentane-1-carbonitrile] | ≤ 500 | ≤ 500
CC1(C)C(=O)N(c2ccc(C3(C#N)CCC3)cc2)C(=O)N1Cc1ccnc(NC2CCOCC2)c1 [Compound 129, 1-(4-(4,4-dimethyl-2,5-dioxo-3-((2-((tetrahydro-2H-pyran-4-yl)amino)pyridin-4-yl)methyl)imidazolidin-1-yl)phenyl)cyclobutane-1-carbonitrile] | ≤ 500 | ≤ 500
CC1(C)C(=O)N(c2ccc(C3CCCCC3)cc2)C(=O)N1Cc1ccnc(N)c1 [Compound 87, 1-((2-aminopyridin-4-yl)methyl)-3-(4-cyclohexylphenyl)-5,5-dimethylimidazolidine-2,4-dione] |  | 500 to 2000
COc1cc(NC(=O)Nc2cc(CN3C(=O)N(c4ccc(SC(F)(F)F)cc4)C(=O)C3(C)C)ccn2)ccc1O[C@H]1C[C@@H](N(C)C)C1 [Compound 351, 1-(4-((5,5-dimethyl-2,4-dioxo-3-(4-((trifluoromethyl)thio)phenyl)imidazolidin-1-yl)methyl)pyridin-2-yl)-3-(4-((1s,3s)-3-(dimethylamino)cyclobutoxy)-3-methoxyphenyl)urea] |  | ≤ 500
CC(C)(C)c1ccc(N2C(=O)N(Cc3ccnc(NC4(CO)CC4)c3)C(C)(C)C2=O)cc1 [Compound 271, 3-(4-(tert-butyl)phenyl)-1-((2-((1-(hydroxymethyl)cyclopropyl)amino)pyridin-4-yl)methyl)-5,5-dimethylimidazolidine-2,4-dione] |  | 500 to 2000
Cc1cc2c(CN3C(=O)N(c4ccc(C5(C(F)(F)F)CC5)cc4)C(=O)C3(C)C)ccnc2[nH]1 [Compound 9, 5,5-dimethyl-1-((2-methyl-1H-pyrrolo[2,3-b]pyridin-4-yl)methyl)-3-(4-(1-(trifluoromethyl)cyclopropyl)phenyl) imidazolidine-2,4-dione] |  | ≤ 500
CC1(c2ccc(N3C(=O)N(Cc4ccnc(N)c4)C(C)(C)C3=O)cc2)COC1 [Compound 90, 1-((2-aminopyridin-4-yl)methyl)-5,5-dimethyl-3-(4-(3-methyloxetan-3-yl)phenyl)imidazolidine-2,4-dione] |  | 500 to 2000
CC(C)Nc1cc(CN2C(=O)N(c3ccc(C45CC(C4)C5)cc3)C(=O)C2(C)C)ccn1 [Compound 117, 3-(4-(bicyclo[1.1.1]pentan-1-yl)phenyl)-1-((2-(isopropylamino)pyridin-4-yl)methyl)-5,5-dimethylimidazolidine-2,4-dione] |  | ≤ 500
COCC(C)(C)Nc1cc(CN2C(=O)N(c3ccc(C(C)(C)C)cc3)C(=O)C2(C)C)ccn1 [Compound 274, 3-(4-(tert-butyl)phenyl)-1-((2-((1-methoxy-2-methylpropan-2-yl)amino)pyridin-4-yl)methyl)-5,5-dimethylimidazolidine-2,4-dione] |  | 500 to 2000
CC1(C)C(=O)N(c2ccc(C3(C(F)(F)F)CC3)cc2)C(=O)N1Cc1ccnc(NCC(F)F)c1 [Compound 103, 1-((2-((2,2-difluoroethyl)amino)pyridin-4-yl)methyl)-5,5-dimethyl-3-(4-(1-(trifluoromethyl)cyclopropyl)phenyl) imidazolidine-2,4-dione] |  | ≤ 500
CC(C)Nc1cc(CN2C(=O)N(c3ccc(C45CC(C)(C4)C5)cc3)C(=O)C2(C)C)ccn1 [Compound 112, 1-((2-(isopropylamino)pyridin-4-yl)methyl)-5,5-dimethyl-3-(4-(3-methylbicyclo[1.1.1]pentan-1-yl)phenyl)imidazolidine-2,4-dione] |  | 2000 to 10000

Other lines, results leading:

IC50 [1] [nM] | IC50 [2] [nM] | Structure (SMILES)
≤ 500 | ≤ 500 | CC(C)Nc1cc(CN2C(=O)N(c3ccc(C(C)(C)C)cn3)C(=O)C2(C)C)ccn1 [Compound 277, 3-(5-(tert-butyl)pyridin-2-yl)-1-((2-(isopropylamino)pyridin-4-yl)methyl)-5,5-dimethylimidazolidine-2,4-dione]
 | 2000 to 10000 | CC(C)[C@@H]1C(=O)N(c2ccc(SC(F)(F)F)cc2)C(=O)N1Cc1ccnc(N)c1 [Compound 295, (R)-1-((2-aminopyridin-4-yl)methyl)-5-isopropyl-3-(4-((trifluoromethyl)thio)phenyl)imidazolidine-2,4-dione]
 | ≤ 500 | CC1(C)C(=O)N(c2ccc(SC(F)(F)F)cc2)C(=O)N1Cc1ccnc(NC(=O)NC2CCOC2)c1 (centres unmarked) [Compound 303, 1-(4-((5,5-dimethyl-2,4-dioxo-3-(4-((trifluoromethyl)thio)phenyl)imidazolidin-1-yl)methyl)pyridin-2-yl)-3-(tetrahydrofuran-3-yl)urea]
 | > 10000 | Nc1cc(CN2C(=O)N(c3ccc(SC(F)(F)F)cc3)C(=O)[C@@H]2c2ccccc2)ccn1 [Compound 294, (S)-1-((2-aminopyridin-4-yl)methyl)-5-phenyl-3-(4-((trifluoromethyl)thio)phenyl)imidazolidine-2,4-dione]
 | ≤ 500 | COc1cccc(NC(=O)Nc2cc(CN3C(=O)N(c4ccc(SC(F)(F)F)cc4)C(=O)C3(C)C)ccn2)c1 [Compound 364, 1-(4-((5,5-dimethyl-2,4-dioxo-3-(4-((trifluoromethyl)thio)phenyl)imidazolidin-1-yl)methyl)pyridin-2-yl)-3-(3-methoxyphenyl)urea]
 | ≤ 500 | CC(C)(C)c1ccc(N2C(=O)N(Cc3ccnc(NC45CC(C4)C5)c3)C(C)(C)C2=O)cc1 [Compound 276, 1-((2-(bicyclo[1.1.1]pentan-1-ylamino)pyridin-4-yl)methyl)-3-(4-(tert-butyl)phenyl)-5,5-dimethylimidazolidine-2,4-dione]
 | 500 to 2000 | CN1CC(Nc2cc(CN3C(=O)N(c4ccc(C(C)(C)C)cc4)C(=O)C3(C)C)ccn2)C1 [Compound 345, 3-(4-(tert-butyl)phenyl)-5,5-dimethyl-1-((2-((1-methylazetidin-3-yl)amino)pyridin-4-yl)methyl)imidazolidine-2,4-dione]
 | ≤ 500 | CC1(C)C(=O)N(c2ccc(SC(F)(F)F)cc2)C(=O)N1Cc1ccnc(NC(=O)NC2CCC(F)(F)C2)c1 (centres unmarked) [Compound 374, 1-(3,3-difluorocyclopenty)-3-(4-((5,5-dimethyl-2,4-dioxo-3-(4-((trifluoromethyl)thio)phenyl)imidazolidin-1-yl)methyl)pyridin-2-yl)urea]
 | ≤ 500 | CNC(=O)Nc1cc(CN2C(=O)N(c3ccc(SC(F)(F)F)cc3)C(=O)C2(C)C)ccn1 [Compound 361, 1-(4-((5,5-dimethyl-2,4-dioxo-3-(4-((trifluoromethyl)thio)phenyl)imidazolidin-1-yl)methyl)pyridin-2-yl)-3-methylurea]
 | 2000 to 10000 | CC(C)[C@H]1C(=O)N(c2ccc(S(=O)(=O)C(F)(F)F)cc2)C(=O)N1Cc1ccnc(N)c1 [Compound 300, (S)-1-((2-aminopyridin-4-yl)methyl)-5-isopropyl-3-(4-((trifluoromethyl)sulfonyl)phenyl)imidazolidine-2,4-dione]
 | ≤ 500 | CC1(C)C(=O)N(c2ccc([S+]([O-])C(F)(F)F)cc2)C(=O)N1Cc1ccnc(N)c1 (centres unmarked) [Compound 393, 1-((2-aminopyridin-4-yl)methyl)-5,5-dimethyl-3-(4-((trifluoromethyl)sulfinyl)phenyl) imidazolidine-2,4-dione]
 | 500 to 2000 | Nc1cc(CN2C(=O)N(c3ccc(SC(F)(F)F)cc3)C(=O)[C@@H]2Cc2ccccc2)ccn1 [Compound 289, (S)-1-((2-aminopyridin-4-yl)methyl)-5-benzyl-3-(4-((trifluoromethyl)thio)phenyl)imidazolidine-2,4-dione]
 | 2000 to 10000 | CC(C)Nc1cc(CN2C(=O)N(c3ccc(SC(F)(F)F)cc3)C(=O)C2(C)C)cc(F)n1 [Compound 383, 1-((2-fluoro-6-(isopropylamino)pyridin-4-yl)methyl)-5,5-dimethyl-3-(4-((trifluoromethyl)thio)phenyl) imidazolidine-2,4-dione]
